This assay deals with human F508del-CFTR (Homo sapiens, UniProt P13569, DEL508-508). In words: F508del-CFTR cell surface expression (corrector activity), DiscoveRx ß-galactosidase complementation chemiluminescence assay in recombinant U2OS cell line.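 For all read-outs here: U2OS cells co-expressing ProLink-tagged F508del-CFTR and a membrane-anchored enzyme acceptor, where more surface CFTR restores β-galactosidase activity measured by chemiluminescence.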 To be noted: U2OS cell line, 16h compound incubation; for EC50: EC50, F508del-CFTR cell surface expression, geomean values; for Emax: U2OS, in relation to the Emax of the corrector lumacaftor (=100%), arithmetic mean values.
human F508del-CFTR, sequence (P13569 with tags, fused parts or gaps DEL508-508): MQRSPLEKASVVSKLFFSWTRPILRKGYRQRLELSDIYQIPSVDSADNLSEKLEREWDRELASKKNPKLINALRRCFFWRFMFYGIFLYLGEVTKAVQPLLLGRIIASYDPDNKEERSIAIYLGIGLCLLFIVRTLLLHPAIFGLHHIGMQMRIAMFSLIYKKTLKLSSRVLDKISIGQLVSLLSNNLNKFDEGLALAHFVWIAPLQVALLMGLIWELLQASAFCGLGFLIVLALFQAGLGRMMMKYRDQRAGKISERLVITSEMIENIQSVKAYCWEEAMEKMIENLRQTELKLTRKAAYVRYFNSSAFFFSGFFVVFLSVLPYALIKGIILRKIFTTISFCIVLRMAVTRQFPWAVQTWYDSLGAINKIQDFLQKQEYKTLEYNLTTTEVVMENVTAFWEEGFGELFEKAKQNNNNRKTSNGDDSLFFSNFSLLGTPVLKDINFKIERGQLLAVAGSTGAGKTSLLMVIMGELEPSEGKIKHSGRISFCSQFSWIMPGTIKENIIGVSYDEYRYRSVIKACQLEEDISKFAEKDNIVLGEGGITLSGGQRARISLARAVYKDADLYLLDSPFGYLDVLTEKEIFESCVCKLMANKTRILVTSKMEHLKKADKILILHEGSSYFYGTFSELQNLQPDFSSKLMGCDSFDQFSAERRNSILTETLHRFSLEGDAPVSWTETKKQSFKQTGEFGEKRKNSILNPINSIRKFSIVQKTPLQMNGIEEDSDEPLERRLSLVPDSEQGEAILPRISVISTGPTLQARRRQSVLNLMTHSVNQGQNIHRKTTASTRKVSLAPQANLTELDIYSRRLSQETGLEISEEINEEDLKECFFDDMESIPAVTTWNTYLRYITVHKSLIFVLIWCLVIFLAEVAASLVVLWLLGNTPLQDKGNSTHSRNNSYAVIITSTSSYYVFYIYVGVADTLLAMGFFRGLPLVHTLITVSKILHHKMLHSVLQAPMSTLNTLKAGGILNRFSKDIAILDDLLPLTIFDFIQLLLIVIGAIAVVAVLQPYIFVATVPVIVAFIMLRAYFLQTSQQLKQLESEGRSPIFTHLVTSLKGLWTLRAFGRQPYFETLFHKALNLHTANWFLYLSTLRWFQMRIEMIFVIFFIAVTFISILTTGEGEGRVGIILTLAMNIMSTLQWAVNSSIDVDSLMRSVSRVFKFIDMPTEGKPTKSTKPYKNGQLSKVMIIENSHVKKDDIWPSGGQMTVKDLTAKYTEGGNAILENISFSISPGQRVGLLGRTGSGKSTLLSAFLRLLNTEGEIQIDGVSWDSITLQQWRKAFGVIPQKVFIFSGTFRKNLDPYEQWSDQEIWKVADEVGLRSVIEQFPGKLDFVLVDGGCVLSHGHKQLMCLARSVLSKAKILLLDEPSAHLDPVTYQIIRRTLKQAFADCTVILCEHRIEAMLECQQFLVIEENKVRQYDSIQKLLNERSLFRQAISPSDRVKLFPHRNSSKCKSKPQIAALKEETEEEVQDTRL

The values that follow come from patent publication US20240208992A1, “MACROCYCLES AS CFTR MODULATORS” (Idorsia Pharmaceuticals Ltd, priority 2021, published 2024).

A word on the EC50: it is the concentration that produces a half-maximal response. Usually Emax stands for the greatest response seen or fitted, relative to the assay's reference. On to `COc1cc(OC)c2c(c1)OC[C@@H](Cc1ccccc1)NC(=O)CN(CCC1CCCCC1)C(=O)[C@H](CC(C)C)N(C)C(=O)C[C@@H](C(=O)NCCc1ccc3c(c1)OCO3)NC2=O` [Example 255, (3R,9S,13S)-N-(2-(benzo[d][1,3]dioxol-5-yl)ethyl)-3-benzyl-7-(2-cyclohexylethyl)-9-isobutyl-16,18-dimethoxy-10-methyl-5,8,11,15-tetraoxo-2,3,4,5,6,7,8,9,10,11,12,13,14,15-tetradecahydrobenzo[p][1]oxa[4,7,10,14]tetraazacycloheptadecine-13-carboxamide], for which the concentration for a half-maximal effect (EC50) came out at 183 nM and the maximum response (Emax) amounted to 299%.
For the molecule `COc1cccc(CCNC(=O)[C@@H]2CC(=O)N(C)[C@@H](CC(C)C)C(=O)N(CCC3CCCCC3)CC(=O)N[C@H](Cc3ccccc3)COc3cc(OC)cc(OC)c3C(=O)N2)c1` [Example 256, (3R,9S,13S)-3-benzyl-7-(2-cyclohexylethyl)-9-isobutyl-16,18-dimethoxy-N-(3-methoxyphenethyl)-10-methyl-5,8,11,15-tetraoxo-2,3,4,5,6,7,8,9,10,11,12,13,14,15-tetradecahydrobenzo[p][1]oxa[4,7,10,14]tetraazacycloheptadecine-13-carboxamide], the EC50 came out at 147 nM and the Emax was found to be 319%.
Regarding `COc1cccc2c1C(=O)N[C@H](C(=O)NCCc1ccc3c(c1)OCO3)CC(=O)N(C)CC(=O)N(CCC1CCCCC1)CC(=O)N[C@H](Cc1ccccc1)CO2` [Example 257, (3R,13S)-N-(2-(benzo[d][1,3]dioxol-5-yl)ethyl)-3-benzyl-7-(2-cyclohexylethyl)-16-methoxy-10-methyl-5,8,11,15-tetraoxo-2,3,4,5,6,7,8,9,10,11,12,13,14,15-tetradecahydrobenzo[p][1]oxa[4,7,10,14]tetraazacycloheptadecine-13-carboxamide], the 50% effective concentration (EC50) turned out to be 249 nM and the maximal response (Emax) was 116%.
For the molecule `COc1cccc(CCNC(=O)[C@@H]2CC(=O)N(C)CC(=O)N(CCC3CCCCC3)CC(=O)N[C@H](Cc3ccccc3)COc3cccc(OC)c3C(=O)N2)c1` [Example 258, (3R,13S)-3-benzyl-7-(2-cyclohexylethyl)-16-methoxy-N-(3-methoxyphenethyl)-10-methyl-5,8,11,15-tetraoxo-2,3,4,5,6,7,8,9,10,11,12,13,14,15-tetradecahydrobenzo[p][1]oxa[4,7,10,14]tetraazacycloheptadecine-13-carboxamide], the concentration for a half-maximal effect (EC50) stood at 424 nM and the Emax stood at 117%.
As for `COc1cccc2c1C(=O)N[C@H](C(=O)NCCc1ccc3c(c1)OCCCC3)CC(=O)N(C)[C@@H](CC(C)C)C(=O)N1CCOC[C@@H]1C(=O)N[C@H](Cc1ccccc1)CO2` [Example 260, (7S,11S,20R,22aR)-20-benzyl-7-isobutyl-14-methoxy-8-methyl-6,9,13,22-tetraoxo-N-(2-(2,3,4,5-tetrahydrobenzo[b]oxepin-8-yl)ethyl)-1,3,4,6,7,8,9,10,11,12,13,19,20,21,22,22a-hexadecahydrobenzo[p][1,4]oxazino[3,4-f][1]oxa[4,7,10,14]tetraazacycloheptadecine-11-carboxamide], the EC50 came to 783 nM and the Emax came out at 243%.
Turning to `CC(C)C[C@H]1C(=O)N(CCC2CCCCC2)CC(=O)N[C@H](Cc2ccccc2)COc2ccncc2C(=O)N[C@H](C(=O)NCCc2ccc3c(c2)OCCC3)CC(=O)N1C` [Example 261, (3R,9S,13S)-3-benzyl-N-(2-(chroman-7-yl)ethyl)-7-(2-cyclohexylethyl)-9-isobutyl-10-methyl-5,8,11,15-tetraoxo-2,3,4,5,6,7,8,9,10,11,12,13,14,15-tetradecahydropyrido[3,4-p][1]oxa[4,7,10,14]tetraazacycloheptadecine-13-carboxamide], the half-maximal effective concentration (EC50) was found to be 327 nM and the maximal effect (Emax) was found to be 215%.
Consider `CC(C)C[C@H]1C(=O)N(CCC2CCCCC2)CC(=O)N[C@H](Cc2ccccc2)COc2ccncc2C(=O)N[C@H](C(=O)NCCc2ccc3c(c2)OCC3)CC(=O)N1C` [Example 262, (3R,9S,13S)-3-benzyl-7-(2-cyclohexylethyl)-N-(2-(2,3-dihydrobenzofuran-6-yl)ethyl)-9-isobutyl-10-methyl-5,8,11,15-tetraoxo-2,3,4,5,6,7,8,9,10,11,12,13,14,15-tetradecahydropyrido[3,4-p][1]oxa[4,7,10,14]tetraazacycloheptadecine-13-carboxamide], for which the EC50 was determined as 339 nM and the maximal effect (Emax) was found to be 231%.
For `COc1cccc2c1C(=O)N[C@H](C(=O)NCCc1ccc3c(c1)OCO3)CC(=O)N(C)[C@@H](C)C(=O)N(CCC1CCCCC1)CC(=O)N[C@H](Cc1ccccc1)CO2` [Example 263, (3R,9S,13S)-N-(2-(benzo[d][1,3]dioxol-5-yl)ethyl)-3-benzyl-7-(2-cyclohexylethyl)-16-methoxy-9,10-dimethyl-5,8,11,15-tetraoxo-2,3,4,5,6,7,8,9,10,11,12,13,14,15-tetradecahydrobenzo[p][1]oxa[4,7,10,14]tetraazacycloheptadecine-13-carboxamide], the EC50 came out at 448 nM and the Emax worked out at 140%.
As to `COc1cccc(CCNC(=O)[C@@H]2CC(=O)N(C)[C@@H](C)C(=O)N(CCC3CCCCC3)CC(=O)N[C@H](Cc3ccccc3)COc3cccc(OC)c3C(=O)N2)c1` [Example 264, (3R,9S,13S)-3-benzyl-7-(2-cyclohexylethyl)-16-methoxy-N-(3-methoxyphenethyl)-9,10-dimethyl-5,8,11,15-tetraoxo-2,3,4,5,6,7,8,9,10,11,12,13,14,15-tetradecahydrobenzo[p][1]oxa[4,7,10,14]tetraazacycloheptadecine-13-carboxamide], the 50% effective concentration (EC50) was 442 nM and the Emax came to 117%.
For `CC(C)C[C@H]1C(=O)N(CCC2CCCCC2)CC(=O)N[C@H](Cc2ccccc2)COc2cnccc2C(=O)N[C@H](C(=O)NCCc2ccc3c(c2)OCO3)CC(=O)N1C` [Example 265, (3R,9S,13S)-N-(2-(benzo[d][1,3]dioxol-5-yl)ethyl)-3-benzyl-7-(2-cyclohexylethyl)-9-isobutyl-10-methyl-5,8,11,15-tetraoxo-2,3,4,5,6,7,8,9,10,11,12,13,14,15-tetradecahydropyrido[4,3-p][1]oxa[4,7,10,14]tetraazacycloheptadecine-13-carboxamide], the EC50 stood at 266 nM and the maximal response (Emax) came out at 106%.
Consider `COc1cccc(CCNC(=O)[C@@H]2CC(=O)N(C)[C@@H](CC(C)C)C(=O)N(CCC3CCCCC3)CC(=O)N[C@H](Cc3ccccc3)COc3cnccc3C(=O)N2)c1` [Example 266, (3R,9S,13S)-3-benzyl-7-(2-cyclohexylethyl)-9-isobutyl-N-(3-methoxyphenethyl)-10-methyl-5,8,11,15-tetraoxo-2,3,4,5,6,7,8,9,10,11,12,13,14,15-tetradecahydropyrido[4,3-p][1]oxa[4,7,10,14]tetraazacycloheptadecine-13-carboxamide], for which the EC50 was 357 nM and the maximal effect (Emax) is 136%.
The corresponding values for `CC(C)C[C@H]1C(=O)N(CCC2CCCCC2)CC(=O)N[C@H](Cc2ccccc2)COc2ccc3ccccc3c2C(=O)N[C@H](C(=O)NCCc2ccc3c(c2)OCO3)CC(=O)N1C` [Example 267, (3S,7S,13R)-N-(2-(benzo[d][1,3]dioxol-5-yl)ethyl)-13-benzyl-9-(2-cyclohexylethyl)-7-isobutyl-6-methyl-1,5,8,11-tetraoxo-1,2,3,4,5,6,7,8,9,10,11,12,13,14-tetradecahydronaphtho[1,2-p][1]oxa[4,7,10,14]tetraazacycloheptadecine-3-carboxamide] are 107 nM and 275%.
The corresponding values for `COc1cccc(CCNC(=O)[C@@H]2CC(=O)N(C)[C@@H](CC(C)C)C(=O)N(CCC3CCCCC3)CC(=O)N[C@H](Cc3ccccc3)COc3ccc4ccccc4c3C(=O)N2)c1` [Example 268, (3S,7S,13R)-13-benzyl-9-(2-cyclohexylethyl)-7-isobutyl-N-(3-methoxyphenethyl)-6-methyl-1,5,8,11-tetraoxo-1,2,3,4,5,6,7,8,9,10,11,12,13,14-tetradecahydronaphtho[1,2-p][1]oxa[4,7,10,14]tetraazacycloheptadecine-3-carboxamide] are 100 nM and 273%.
The corresponding values for `CC(C)C[C@H]1C(=O)N(C)CC(=O)N[C@H](Cc2ccccc2)COc2ccc3ccccc3c2C(=O)N[C@H](C(=O)NCCc2ccc3c(c2)OCO3)CC(=O)N1C` [Example 269, (3S,7S,13R)-N-(2-(benzo[d][1,3]dioxol-5-yl)ethyl)-13-benzyl-7-isobutyl-6,9-dimethyl-1,5,8,11-tetraoxo-1,2,3,4,5,6,7,8,9,10,11,12,13,14-tetradecahydronaphtho[1,2-p][1]oxa[4,7,10,14]tetraazacycloheptadecine-3-carboxamide] are 350 nM and 251%.
With `Cc1cc2c(cn1)C(=O)N[C@H](C(=O)NCCc1ccc3c(c1)OCO3)CC(=O)N(C)[C@@H](CC(C)C)C(=O)N(CCC1CCCCC1)CC(=O)N[C@H](Cc1ccccc1)CO2` [Example 270, (3R,9S,13S)-N-(2-(benzo[d][1,3]dioxol-5-yl)ethyl)-3-benzyl-7-(2-cyclohexylethyl)-9-isobutyl-10,18-dimethyl-5,8,11,15-tetraoxo-2,3,4,5,6,7,8,9,10,11,12,13,14,15-tetradecahydropyrido[3,4-p][1]oxa[4,7,10,14]tetraazacycloheptadecine-13-carboxamide], the half-maximal effective concentration (EC50) was 423 nM and the Emax was 172%.
For the molecule `COc1cccc(CCNC(=O)[C@@H]2CC(=O)N(C)[C@@H](CC(C)C)C(=O)N(CCC3CCCCC3)CC(=O)N[C@H](Cc3ccccc3)COc3cc(C)ncc3C(=O)N2)c1` [Example 271, (3R,9S,13S)-3-benzyl-7-(2-cyclohexylethyl)-9-isobutyl-N-(3-methoxyphenethyl)-10,18-dimethyl-5,8,11,15-tetraoxo-2,3,4,5,6,7,8,9,10,11,12,13,14,15-tetradecahydropyrido[3,4-p][1]oxa[4,7,10,14]tetraazacycloheptadecine-13-carboxamide], the EC50 is 266 nM and the Emax is 185%.
